# According to PubChem BioAssay (NCI):
#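 These data come from cells grown in 96-well plates and exposed to compound for 48 hours at five concentrations. TGI is the concentration that stops growth completely.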
# Key:
# Test in all cases: inhibition of tumour cell growth, NCI panel, 48 h
# 786-0 renal = tested on: 786-0 renal
# A498 renal = tested on: A498 renal
# ACHN renal = tested on: ACHN renal
# BT-549 breast = tested on: BT-549 breast
# CAKI-1 renal = tested on: CAKI-1 renal
# CCRF-CEM leukemia = tested on: CCRF-CEM leukemia
# COLO 205 colon = tested on: COLO 205 colon
# DU-145 prostate = tested on: DU-145 prostate
# EKVX NSCLC = tested on: EKVX NSCLC
# HCC-2998 colon = tested on: HCC-2998 colon
# HCT-116 colon = tested on: HCT-116 colon
# HCT-15 colon = tested on: HCT-15 colon
# HL-60(TB) leukemia = tested on: HL-60(TB) leukemia
# HOP-62 NSCLC = tested on: HOP-62 NSCLC
# HOP-92 NSCLC = tested on: HOP-92 NSCLC
# HS 578T breast = tested on: HS 578T breast
# IGROV1 ovarian = tested on: IGROV1 ovarian
# K-562 leukemia = tested on: K-562 leukemia
# KM12 colon = tested on: KM12 colon
# LOX IMVI melanoma = tested on: LOX IMVI melanoma
# M14 melanoma = tested on: M14 melanoma
# MCF7 breast = tested on: MCF7 breast
# MDA-MB-231 breast = tested on: MDA-MB-231 breast
# MDA-MB-435 = tested on: MDA-MB-435
# MDA-N = tested on: MDA-N
# MOLT-4 leukemia = tested on: MOLT-4 leukemia
# NCI-H226 lung = tested on: NCI-H226 lung
# NCI-H23 lung = tested on: NCI-H23 lung
# NCI-H460 lung = tested on: NCI-H460 lung
# NCI-H522 lung = tested on: NCI-H522 lung
# NCI/ADR-RES ovarian = tested on: NCI/ADR-RES ovarian
# OVCAR-3 ovarian = tested on: OVCAR-3 ovarian
# OVCAR-4 ovarian = tested on: OVCAR-4 ovarian
# OVCAR-5 ovarian = tested on: OVCAR-5 ovarian
# OVCAR-8 ovarian = tested on: OVCAR-8 ovarian
# PC-3 prostate = tested on: PC-3 prostate
# RPMI-8226 leukemia = tested on: RPMI-8226 leukemia
# RXF 393 renal = tested on: RXF 393 renal
# SF-268 CNS = tested on: SF-268 CNS
# SF-295 CNS = tested on: SF-295 CNS
# SF-539 CNS = tested on: SF-539 CNS
# SK-MEL-2 melanoma = tested on: SK-MEL-2 melanoma
# SK-MEL-5 melanoma = tested on: SK-MEL-5 melanoma
# SK-OV-3 ovarian = tested on: SK-OV-3 ovarian
# SN12C renal = tested on: SN12C renal
# SNB-19 CNS = tested on: SNB-19 CNS
# SNB-75 CNS = tested on: SNB-75 CNS
# SR leukemia = tested on: SR leukemia
# SW-620 colon = tested on: SW-620 colon
# T-47D breast = tested on: T-47D breast
# TK-10 renal = tested on: TK-10 renal
# U251 CNS = tested on: U251 CNS
# UACC-257 melanoma = tested on: UACC-257 melanoma
# UACC-62 melanoma = tested on: UACC-62 melanoma
# UO-31 renal = tested on: UO-31 renal
# A549 NSCLC = tested on: A549 NSCLC
# HT29 colon = tested on: HT29 colon
# MALME-3M melanoma = tested on: MALME-3M melanoma
# SK-MEL-28 melanoma = tested on: SK-MEL-28 melanoma
structure (smiles),measurement,setting,value
c1ccc(COC2C3COC(O3)C(OCc3ccccc3)C2OCc2ccccc2)cc1 (stereo not drawn),TGI,786-0 renal,> 100 µM
same,TGI,A498 renal,> 100 µM
same,TGI,ACHN renal,> 100 µM
same,TGI,BT-549 breast,> 100 µM
same,TGI,CAKI-1 renal,> 100 µM
same,TGI,CCRF-CEM leukemia,40.6 µM
same,TGI,COLO 205 colon,> 100 µM
same,TGI,DU-145 prostate,> 100 µM
same,TGI,EKVX NSCLC,> 100 µM
same,TGI,HCC-2998 colon,52.1 µM
same,TGI,HCT-116 colon,> 100 µM
same,TGI,HCT-15 colon,> 100 µM
same,TGI,HL-60(TB) leukemia,30.9 µM
same,TGI,HOP-62 NSCLC,> 100 µM
same,TGI,HOP-92 NSCLC,> 100 µM
same,TGI,HS 578T breast,> 100 µM
same,TGI,IGROV1 ovarian,> 100 µM
same,TGI,K-562 leukemia,> 100 µM
same,TGI,KM12 colon,> 100 µM
same,TGI,LOX IMVI melanoma,> 100 µM
same,TGI,M14 melanoma,> 100 µM
same,TGI,MCF7 breast,> 100 µM
same,TGI,MDA-MB-231 breast,> 100 µM
same,TGI,MDA-MB-435,> 100 µM
same,TGI,MDA-N,> 100 µM
same,TGI,MOLT-4 leukemia,56.5 µM
same,TGI,NCI-H226 lung,> 100 µM
same,TGI,NCI-H23 lung,> 100 µM
same,TGI,NCI-H460 lung,> 100 µM
same,TGI,NCI-H522 lung,62.6 µM
same,TGI,NCI/ADR-RES ovarian,> 100 µM
same,TGI,OVCAR-3 ovarian,> 100 µM
same,TGI,OVCAR-4 ovarian,> 100 µM
same,TGI,OVCAR-5 ovarian,> 100 µM
same,TGI,OVCAR-8 ovarian,> 100 µM
same,TGI,PC-3 prostate,> 100 µM
same,TGI,RPMI-8226 leukemia,> 100 µM
same,TGI,RXF 393 renal,> 100 µM
same,TGI,SF-268 CNS,> 100 µM
same,TGI,SF-295 CNS,> 100 µM
same,TGI,SF-539 CNS,> 100 µM
same,TGI,SK-MEL-2 melanoma,> 100 µM
same,TGI,SK-MEL-5 melanoma,> 100 µM
same,TGI,SK-OV-3 ovarian,> 100 µM
same,TGI,SN12C renal,41.7 µM
same,TGI,SNB-19 CNS,> 100 µM
same,TGI,SNB-75 CNS,> 100 µM
same,TGI,SR leukemia,25.4 µM
same,TGI,SW-620 colon,> 100 µM
same,TGI,T-47D breast,> 100 µM
same,TGI,TK-10 renal,> 100 µM
same,TGI,U251 CNS,> 100 µM
same,TGI,UACC-257 melanoma,> 100 µM
same,TGI,UACC-62 melanoma,> 100 µM
same,TGI,UO-31 renal,> 100 µM
NC(=O)CC(N)c1nn[nH]n1 (stereo not drawn),TGI,786-0 renal,> 100 µM
same,TGI,A498 renal,> 100 µM
same,TGI,A549 NSCLC,> 100 µM
same,TGI,ACHN renal,> 100 µM
same,TGI,BT-549 breast,> 100 µM
same,TGI,CAKI-1 renal,> 100 µM
same,TGI,CCRF-CEM leukemia,> 100 µM
same,TGI,COLO 205 colon,> 100 µM
same,TGI,DU-145 prostate,> 100 µM
same,TGI,EKVX NSCLC,> 100 µM
same,TGI,HCT-116 colon,> 100 µM
same,TGI,HCT-15 colon,> 100 µM
same,TGI,HL-60(TB) leukemia,> 100 µM
same,TGI,HOP-62 NSCLC,> 100 µM
same,TGI,HOP-92 NSCLC,> 100 µM
same,TGI,HS 578T breast,> 100 µM
same,TGI,HT29 colon,> 100 µM
same,TGI,IGROV1 ovarian,> 100 µM
same,TGI,K-562 leukemia,> 100 µM
same,TGI,KM12 colon,> 100 µM
same,TGI,LOX IMVI melanoma,> 100 µM
same,TGI,M14 melanoma,> 100 µM
same,TGI,MALME-3M melanoma,> 100 µM
same,TGI,MCF7 breast,> 100 µM
same,TGI,MDA-MB-231 breast,> 100 µM
same,TGI,MDA-MB-435,> 100 µM
same,TGI,MDA-N,> 100 µM
same,TGI,MOLT-4 leukemia,> 100 µM
same,TGI,NCI-H226 lung,> 100 µM
same,TGI,NCI-H23 lung,> 100 µM
same,TGI,NCI-H460 lung,> 100 µM
same,TGI,NCI-H522 lung,> 100 µM
same,TGI,NCI/ADR-RES ovarian,> 100 µM
same,TGI,OVCAR-3 ovarian,> 100 µM
same,TGI,OVCAR-4 ovarian,> 100 µM
same,TGI,OVCAR-5 ovarian,> 100 µM
same,TGI,OVCAR-8 ovarian,> 100 µM
same,TGI,PC-3 prostate,> 100 µM
same,TGI,RPMI-8226 leukemia,> 100 µM
same,TGI,RXF 393 renal,> 100 µM
same,TGI,SF-268 CNS,> 100 µM
same,TGI,SF-295 CNS,> 100 µM
same,TGI,SF-539 CNS,> 100 µM
same,TGI,SK-MEL-2 melanoma,> 100 µM
same,TGI,SK-MEL-28 melanoma,> 100 µM
same,TGI,SK-MEL-5 melanoma,> 100 µM
same,TGI,SK-OV-3 ovarian,> 100 µM
same,TGI,SN12C renal,> 100 µM
same,TGI,SNB-19 CNS,> 100 µM
same,TGI,SNB-75 CNS,> 100 µM
same,TGI,SR leukemia,> 100 µM
same,TGI,SW-620 colon,> 100 µM
same,TGI,T-47D breast,> 100 µM
same,TGI,TK-10 renal,> 100 µM
same,TGI,U251 CNS,> 100 µM
same,TGI,UACC-257 melanoma,> 100 µM
same,TGI,UACC-62 melanoma,> 100 µM
same,TGI,UO-31 renal,> 100 µM
